Square brackets hold non-standard residues; d marks the D form. Peptide text beside a SMILES is read from it.
Columns and labels:
MBP-BCL10 = biological target: T1, MBP-BCL10 (Homo sapiens, UniProt O95999); assay: Co-immunoprecipitation of peptide with MBP-BCL10; type: binding; conditions: biotinylated peptide, streptavidin beads, 4 °C
T1 construct: made in house
Procedure: (§1) MBP-Bcl10 was expressed and purified as previously described {Qiao, 2013 #85}. Purified
(§2) mM NaCl, 1% NP-40) at 4 °C for 1 hour, followed by addition of 5% BSA blocked S t re ptavidin (SAV)
(§3) Immunoprecipitant were washed 5 times with IP buffer and separated by SDS-PA G E . […]
(§4) hActin- F: 5’-[…]-3’
(§5) hIL6-R: 5’- […]-3 ’.
(§6) hBcl10-F: 5’-[…] TAGAAA-3’

HBL1 cells = assay: Intracellular pharmacokinetics, BCL10-P4 versus DRI-BCL10-P4
Procedure: as §1, §2, §3, §4, §5, §6
hBcl10-R: 5’-[…] T-3’
1x105 HBL1, TMD8, OCl-LY 1 , OCl-LY 1 , U2932, MD901 or RCK8 cells were seeded in 12-well plate
wa sh e d and lysed with RIPA buffer.
immunoblotting with Streptavidin (Cell signaling, cat. #3999S). […]

TMD8 and SU-DHL4 cells = assay: Apoptosis (annexin V / PI staining); type: cell-based; conditions: annexin V+/PI- plus annexin V+/PI+, 24 h; two independent experiments
Procedure: ([…]); shBcl10 ([…] TGT […]). Lentivirus production using […]
selected with puromycin (Invitrogen, A1113803) for 2 weeks. Log phase growing cells were seeded […]
The number cells were measured by flow […]
Cells were harvested and RNA was extracted and quantified. Synthesis of cDNA was performed […]
QuantStudio 6 Flex (Applied Biosystems). RNA was normalized by β-Actin or GAPDH mRNA. The following quantitative PCR primers were used: […]
hGAPDH-F: 5′-[…] T […]- 3’ […]
hGAPDH-R: 5’-TACT T TAT […]-3’ […]
hActin- F: 5’-[…]-3’ […]
hActin- R: 5’-TC A […]-3’ […]
hIL10- F: 5’-GGT […] TGTCTGA-3’ […]
hIL10- R: 5’-AGGGAGT […]-3’ […]
hIL6-R: 5’- […]-3 ’. […]
hBcl10-F: 5’-[…] TAGAAA-3’ […]
hBcl10-R: 5’-[…] T-3’ […]
wa sh e d and lysed with RIPA buffer. Biotinylated BCL10 -P4 in cells were determined by immunoblotting with Streptavidin (Cell signaling, cat. #3999S).
Apoptosis and cell cycle:
1:100 dilution for 15 min at room temperature in the dark. Signals from FL1 and FL3 channels were collected by MACSQuant analyzer and data were analyzed using FloJo (Ashland, OR). […]
For cell cycle analysis, cells were washed twice with cold PBS and fixed in 70% ethanol overnight at 4°C. […] DNA content was measured by BD LSRII flow cytometer and data were analyzed in FloJo. […]
All extracts were treated with DNase in column during RNA purification. RNA integrity was determined on an Agilent 2100 Bioanalyzer (Agilent Technologies, SantaClara, CA). […]

[1] = system: OCI-LY1 cell xenograft tumors; assay: Mouse xenograft model; type: in vivo, NCG mice; conditions: DRI-BCL10-P4 10 mg/kg or BCL10-Ctl 5 mg/kg daily, i.v.; Figure S8A-C
Procedure: (§7) Mouse xenograft experiments:
(§8) Six-week-old female NOD prkdc-/- IL-2Rg-/- (NCG) mice purchased from GemPharmatech Co., Lt d we re raised in a SPF- level Laboratory Animal Room. Low -passage 5x106 human TMD8, SU-DHL- 6 or 1x10^7 OCl-LY1 cells at 100μl were premixed with 100μl Matrigel (Corning Biocoat, cat. # 354234) and inoculated subcutaneously into the right flank of mice. When tumors reached an average size of 150 mm3, mice were randomly assigned into treatment groups (10 mg /kg DRI-BCL10- P4) or control groups (5 mg /kg BCL10- Ctl). Peptides were reconstituted in 5% DMSO/PBS and administered by i.v. injection. Tumor volumes were monitored by a digital caliper every other day and calculated using the formula: (smallest diameter2 x largest diameter)/2. Mice were weighed every day and sacrificed at the end of the treatment. T umors and main organs were harvested and we i ghte d at the moment of death. All animal experiments were approved by the Animal Institute Committee of Changhai Hospital, the Second Military Medical University.
(§9) Immunohistochemistry (IHC)
(§10) Formalin-fixed paraffin -embedded tumor xenografts were sectioned, dewaxed and submitted to antigen retrieval. The anti- Ki67 (proteintech, 27309-1) antibody was used at a 1:500 dilution.
(§11) Biotin-conjugated secondary antibodies (MXB biotechnologies, KIT-9710) were used. Then avidin/biotin peroxidase (MXB biotechnologies, KIT-9710) was applied to the slides. Color was developed with diaminobenzoate chromogen peroxidase substrate (MXB biotechnologies, MAX007TM) and counterstained with […] (MXB biotechnologies, MAX007TM). Pictures were obtained using NanoZoomer-S60 microscope ([…]).
(§12) Terminal deoxynucleotidyl transferase dUTP nick end labeling, TUNEL assay was used to detect apoptotic DNA fragmentation. All the experiments were performed according to the kit (KeyGEN Biotech, KGA703) instructions. Briefly, formalin-fixed paraff i n-embedded xenografted tumors were deparaffinized and pre-treated with trypsin to expose DNA. Endogenous peroxidase was quenched using 3% hydrogen peroxide followed by incubation with TdT enzyme for 1 hour. Then, antidigoxigenin-peroxidase was applied to the slides. Color was developed with diaminobenzoate chromogen peroxidase substrate and counterstained with methyl green. Pictures were obtained using NanoZoomer-S60 microscope ([…]).

[2] = system: TMD8 cell xenograft tumors; assay: Mouse xenograft model; type: in vivo, NCG mice
Procedure: as §7, §8, §9, §10, §11, §12

[3] = TMD8 xenograft, 10 mg/kg, compared with control group

T1 sequence (O95999 whole entry): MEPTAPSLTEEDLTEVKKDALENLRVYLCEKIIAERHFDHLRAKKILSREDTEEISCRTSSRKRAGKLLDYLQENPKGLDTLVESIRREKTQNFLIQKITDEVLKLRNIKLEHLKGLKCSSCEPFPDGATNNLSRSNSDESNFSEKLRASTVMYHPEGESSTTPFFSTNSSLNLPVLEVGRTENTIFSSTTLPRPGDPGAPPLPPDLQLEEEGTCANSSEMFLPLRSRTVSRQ

CC[C@@H](C)[C@@H](NC(=O)[C@@H](CCCCN)NC(=O)[C@H](NC(=O)[C@@H](Cc1c[nH]c2ccccc12)NC(=O)[C@@H](Cc1ccccc1)NC(=O)[C@@H](CCC(N)=O)NC(=O)[C@@H](CC(N)=O)NC(=O)[C@@H](CCCNC(=N)N)NC(=O)[C@@H](CCCNC(=N)N)NC(=O)[C@@H](CCSC)NC(=O)[C@@H](CCCCN)NC(=O)[C@@H](Cc1c[nH]c2ccccc12)NC(=O)[C@@H](CCCCN)NC(=O)[C@@H](CCCCN)NC(=O)[C@@H](CCCNC(=N)N)NC(=O)[C@H](NC(=O)[C@@H](CO)NC(=O)[C@@H](CO)NC(=O)[C@@H](CCCNC(=N)N)NC(=O)[C@@H](CCCCN)NC(=O)[C@@H](CCCNC(=N)N)NC(=O)[C@@H](C)NC(=O)CNC(=O)[C@@H](CCCCN)NC(=O)[C@@H](CC(C)C)NC(=O)[C@@H](CC(C)C)NC(=O)[C@@H](CC(=O)O)NC(=O)[C@@H](Cc1ccc(O)cc1)NC(=O)[C@@H](CC(C)C)NC(=O)[C@@H](CCC(N)=O)NC(=O)[C@H](N)CCC(=O)O)[C@H](C)O)[C@H](C)CC)C(=O)N[C@H](CCC(N)=O)C(=O)N[C@H](CCCNC(=N)N)C(=O)N[C@H](CC(=O)O)C(=O)O [DRI-BCL10-P4] (H-[dE][dQ][dL][dY][dD][dL][dL][dK]G[dA][dR][dK][dR][dS][dS][dT][dR][dK][dK][dW][dK][dM][dR][dR][dN][dQ][dF][dW][dI][dK][dI][dQ][dR][dD]-OH)
interaction with MBP-BCL10 (co-immunoprecipitation) (MBP-BCL10): interacted with BCL10 | intracellular level after the first 4 h (intracellular stability) (HBL1 cells): maintained for a much longer time | uptake by HBL1 cells and level within the first 4 h (HBL1 cells): similarly taken up | apoptosis of TMD8 and SU-DHL4 cells (TMD8 and SU-DHL4 cells): induced apoptosis | growth of OCI-LY1 cell xenograft tumors [1]: neither peptide significantly suppressed the growth | growth of TMD8 cell xenograft tumors ([2]; DRI-BCL10-P4 10 mg/kg Q.d. or BCL10-Ctl 5 mg/kg Q.d., i.v., n=8, p=0.013, Mann-Whitney U test): significantly inhibited the growth | apoptosis rate in tumor sections (TUNEL staining) [2, 3]: significant increase in the apoptosis rate | proliferation in tumor sections (Ki67 staining) [2, 3]: significant decrease in the proliferation

From article PMC7546004, “Targeting BCL10 by small peptides for the treatment of B cell lymphoma” (Theranostics, 2020)
